{
  "source": "patent US8247422B2",
  "about": "“Use of condensed pyrimidine derivatives for the treatment of rheumatoid arthritis” (priority 2007, dated 2012)",
  "key": {"[1]": {"test_system": "adjuvant-induced rheumatoid arthritis in rats", "experiment": "Adjuvant-induced RA (AIA) model in rats", "type": "in vivo, Male Lewis rats", "set-up": "% Inhibition of swelling in each time interval relative to negative control: concentration or dose not given beside the values", "settings": "for Mean right hind paw volume (ml water displaced): CFA treated paw, acute phase; for Mean left hind paw volume (ml water displaced): CFA untreated paw, delayed phase", "protocol": "The ability of compounds of formula I to treat adjuvant-induced rheumatoid arthritis in rats was examined. The AIA model is one thought mainly to involve T cell-mediated mechanisms.\nMale Lewis rats weighing 200±10 g were housed in groups of 6 with free access to food and water. 0.1 ml CFA (Mycobacterium tuberculosis 3 mg/ml) was injected into the subplantar region of the right bind paw of each rat on day 1 of the study.\nTest substances were first dissolved in NaOH (if required) as explained above then suspended in 2% Tween 80 to a range of concentrations. 10 ml/kg was administered by oral gavage for 21 consecutive days, beginning (on day 1) 1 hour before injection of CFA. 2% Tween 80 was used as a negative control and methotrexate in 2% Tween 80 as a positive control.\nRight hind paw volumes were measured by water displacement on day 0, 4 hours after the CFA injection on day 1, and on days 7, 14, and 21. Left hind paw volumes were measured by water displacement on days 0, 1, 7, 14, and 21. […] 30% or more reduction in paw volume relative to the negative control was considered significant anti-inflammatory activity. Body weight was also recorded on days 1, 7, 14, and 21. Symptoms of swelling in the front paws, tail, nose and ears were recorded on day 21."}, "rheumatoid arthritis": {"test_system": "rheumatoid arthritis", "settings": "RA patients; cited from earlier work"}, "[2]": {"settings": "in vivo; cited from earlier work"}, "[3]": {"test_system": "collagen-induced rheumatoid arthritis in mice"}},
  "data": [
    {"smiles": "CN(Cc1cnc2nc(N)nc(N)c2n1)c1ccc(C(=O)N[C@@H](CCC(=O)O)C(=O)O)cc1", "note": "[MTX, methotrexate]", "values": [
      {"measurement": "Mean right hind paw volume (ml water displaced)", "setting": "[1]; day 0, oral gavage", "result": 1.06, "unit": "mL"},
      {"measurement": "Mean right hind paw volume (ml water displaced)", "setting": "[1]; day 1 (4 hours after CFA), oral gavage", "result": 1.56, "unit": "mL"},
      {"measurement": "Mean right hind paw volume (ml water displaced)", "setting": "[1]; day 7, oral gavage", "result": 1.79, "unit": "mL"},
      {"measurement": "Mean right hind paw volume (ml water displaced)", "setting": "[1]; day 14, oral gavage", "result": 1.48, "unit": "mL"},
      {"measurement": "Mean right hind paw volume (ml water displaced)", "setting": "[1]; day 21, oral gavage", "result": 1.37, "unit": "mL"},
      {"measurement": "Mean left hind paw volume (ml water displaced)", "setting": "[1]; day 0, oral gavage", "result": 1.06, "unit": "mL"},
      {"measurement": "Mean left hind paw volume (ml water displaced)", "setting": "[1]; day 1, oral gavage", "result": 1.06, "unit": "mL"},
      {"measurement": "Mean left hind paw volume (ml water displaced)", "setting": "[1]; day 7, oral gavage", "result": 1.08, "unit": "mL"},
      {"measurement": "Mean left hind paw volume (ml water displaced)", "setting": "[1]; day 14, oral gavage", "result": 1.10, "unit": "mL"},
      {"measurement": "Mean left hind paw volume (ml water displaced)", "setting": "[1]; day 21, oral gavage", "result": 1.14, "unit": "mL"},
      {"measurement": "% Inhibition of swelling in each time interval relative to negative control", "setting": "[1]; left hind paw (CFA untreated), days 0-14", "result": 95, "unit": "%"},
      {"measurement": "% Inhibition of swelling in each time interval relative to negative control", "setting": "[1]; left hind paw (CFA untreated), days 0-21", "result": 94, "unit": "%"},
      {"measurement": "% Inhibition of swelling in each time interval relative to negative control", "setting": "[1]; right hind paw (CFA treated), days 0-1", "result": 15, "unit": "%"},
      {"measurement": "% Inhibition of swelling in each time interval relative to negative control", "setting": "[1]; right hind paw (CFA treated), days 0-7", "result": 34, "unit": "%"},
      {"measurement": "% Inhibition of swelling in each time interval relative to negative control", "setting": "[1]; right hind paw (CFA treated), days 0-14", "result": 73, "unit": "%"},
      {"measurement": "% Inhibition of swelling in each time interval relative to negative control", "setting": "[1]; right hind paw (CFA treated), days 0-21", "result": 83, "unit": "%"},
      {"measurement": "patients who do not respond sufficiently well to treatment with methotrexate alone", "setting": "rheumatoid arthritis", "result": "around 35%"},
      {"measurement": "fraction undergoing fast elimination unchanged after uptake", "setting": "[2]", "result": "more than 80%"},
      {"measurement": "therapeutic dose as percentage of maximum tolerated dose", "setting": "[3]; mice, intraperitoneal, once daily for 6 weeks", "result": "twice as high"},
      {"measurement": "signs of anaemia at the end of the study (red blood cell count, FIG. 3)", "setting": "[3]; mouse, in vivo", "result": "severe signs of anaemia"}
    ]}
  ]
}
